{"source": "patent US20250109154A1", "about": "“LYSOPHOSPHATIDYLSERINE ANALOGUE, AND LYSOPHOSPHATIDYLSERINE ANALOGUE-CONTAINING PHAMACEUTICAL COMPOSITION FOR TREATING OR PREVENTING FIBROSIS” (THE UNIVERSITY OF TOKYO, priority 2022, published 2025)", "key": {"[1]": {"test_system": "mouse model of liver fibrosis", "experiment": "Mouse model of liver fibrosis (thioacetamide): liver immunohistochemistry and quantitative real time PCR", "type": "in vivo, C57BL/6J mice", "details": "TAA mouse, 20 mg/kg subcutaneously every 24 hours for 14 days", "protocol": "Seven-week-old C57BL/6J mice were purchased from CLEA Japan, Inc. (Tokyo, Japan). All animals were reared in a standard specific pathogen-free room in the animal facility of the Institute for Quantitative Biosciences, University of Tokyo. For a mouse model of liver fibrosis, thioacetamide (TAA) was administered together with drinking water (0.06% v/v), starting 7 weeks before the administration of the compound. After 7 weeks of rearing with TAA-containing water, a vehicle (200 μL of PBS, containing 5% DMSO) or 20 mg/kg (200 μL of PBS, containing 5% DMSO) of Compound (II) was subcutaneously administered every 24 hours for a total period of 14 days. The mice were sacrificed 24 hours after the last injection.\nLiver tissue samples were fixed overnight at 4° C. with Zamboni's fixative (FUJIFILM Wako Pure Chemical Corporation) or Mildform (registered trademark) 10N (FUJIFILM Wako Pure Chemical Corporation). For immunofluorescence staining, the liver tissue fixed with Zamboni's fixative was washed with PBS, and the medium was replaced with a 30% (w/v) sucrose solution. Frozen tissue was prepared by embedding the tissue in a Tissue-Tek (registered trademark) O.C.T. compound (Sakura Finetek Japan) and freezing the resultant in liquid nitrogen. Liver cryosections (8 μm) were mounted on slide glasses, rehydrated, and autoclaved in Target Retrieval Solution (lx, Dako) at 90° C. for 20 min for epitope retrieval. The sections were blocked with 0.3% BSA/PBS for 1 hour at room temperature. After washing with PBS, αSMA (Dako), CollagenI (Bio-Rad Laboratories, Inc.), Ki67 (Santa Cruz), and Hoechst33342 (Sigma-Aldrich) were each added as a first antibody, and the mixture was reacted overnight at 4° C. On the next day, the sections were washed with PBS and then reacted with Invitrogen Alexa Fluor (theromo Fisher) as a second antibody. The section specimens were hermetically sealed and observed with a fluorescence microscope (Keyence BZ-X810). The range of positive CollagenI was quantified using Ratiocollagen I=Areacollagen I/Areatotal.\n(§1) Total RNA of mouse liver tissue was extracted using NucleoSpin RNA Plus kit (Takara Bio) according to the product protocol. Purified RNA was reverse transcribed using High-Capacity cDNA RT Kits (Thermo Fisher Scientific) according to the product protocol. PCR was performed using TB Green Premix Ex Taq II (Takara Bio) and monitored with a LightCycler96 (Roche Life Science). The number of transcripts was standardized by the number of GAPDHs, which are housekeeping genes."}, "[2]": {"test_system": "primary cultured human pancreatic fibroblasts", "experiment": "Expression of marker genes for fibrosing in primary cultured human pancreatic fibroblasts (quantitative real time PCR)", "type": "cell-based", "details": "48 hours", "protocol": "(§2) Primary cultured human renal fibroblasts (ATCC), primary cultured human lung fibroblasts (Cosmo Bio), or primary cultured human pancreatic fibroblasts (K.A.C.) were each seeded in 12-well tissue culture plates (5×10^4 cells/well) and cultured in Minimum Essential Medium (lx) (Gibco, Thermo Fisher Scientific) together with 10% FBS (Fetal Bovine Serum) and 100× antifungal antibiotic solution (Sigma-Aldrich) in a 5% CO2 humidified incubator at 37° C. After 48 hours, the cells were stimulated with dimethyl sulfoxide (DMSO), Compound (II), and/or Compound (III) (5 μM) (final concentration of DMSO was 0.02%) and co-cultured for another 48 hours. Cells that are activated by TGFβ1 (FUJIFILM Wako Pure Chemical Corporation), a fibroblast growth and activation factor, were stimulated with TGFβ1 (20 ng/ml) 72 hours after seeding, and after 48 hours, the cells were stimulated with dimethyl sulfoxide (DMSO), Compound (II), and/or Compound (III) (5 μM) (final concentration of DMSO was 0.02%) and co-cultured for another 48 hours. Thereafter, the cells were lysed using a lysis buffer (MACHEREY-NAGEL GmbH & Co. KG).\n(§3) Quantitative real-time PCR analysis was performed in the same manner as in Example 5."}, "[3]": {"test_system": "primary cultured human renal fibroblasts", "experiment": "Expression of marker genes for fibrosing in primary cultured human renal fibroblasts (quantitative real time PCR)", "type": "cell-based", "details": "48 hours", "protocol": "as §2, §3"}, "[4]": {"test_system": "quiescent hepatic stellate cell-like cells (qHSC-like cells)", "experiment": "Expression of marker genes for fibrosing in quiescent hepatic stellate cell-like cells derived from human iPS cells (quantitative real time PCR)", "type": "cell-based", "details": "1 or 2 μM, 4 hours of incubation, FIG. 3", "protocol": "Quiescent hepatic stellate cell-like cells (qHSC-like cells) were induced by the methods described in Koui et al., Stem Cell Reports 2021, PCT/JP2020/006147, and PCT/JP2016/58411. qHSC-like cells derived from ACTA2-RFP […] iPS cells were seeded in a collagen-coated 12-well plate at a density of 7×10^4 cells/well in Stempro-34 SFM medium (Gibco medium, theromo Fisher) supplemented with Y27632 (10 μM) and 100×PSG. After 24 hours of culture, Compound (II) was dissolved in Stempro-34 SFM medium (100×PSG), and then the solution was added such that the final concentration of Compound (II) was 1 or 2 μM. After 4 hours of incubation, the cells were lysed, and total RNA was extracted using NucleoSpin RNA Plus kit (Takara Bio).\nas §1, with “derived from iPS cell-derived qHSC” for “of mouse liver tissue”"}, "[5]": {"test_system": "primary cultured human skin fibroblasts", "experiment": "Expression of marker genes for fibrosing in primary cultured human skin fibroblasts (quantitative real time PCR)", "type": "cell-based", "details": "48 hours", "protocol": "Primary cultured human skin fibroblasts (Tokyo University School of Medicine) were seeded in 12-well tissue culture plates (7×10^4 cells/well) and cultured in Dulbecco's Modified Eagle's Medium (high glucose) together with 10% FBS (Fetal Bovine Serum) and 100× penicillin-streptomycin-glutamine (PSG) in a 5% CO2 humidified incubator at 37° C. After 48 hours, the cells were stimulated with dimethyl sulfoxide (DMSO), Compound (II), and Compound (III) (5 μM) (final concentration of DMSO was 0.02%) and co-cultured for another 48 hours. Cells activated with TGFβ1 (FUJIFILM Wako Pure Chemical Corporation) were stimulated with TGFβ1 (20 ng/ml) 72 hours after seeding, and after 48 hours, the cells were stimulated with dimethyl sulfoxide (DMSO), Compound (II), and Compound (III) (5 μM) (final concentration of DMSO was 0.02%) and co-cultured for another 48 hours. Thereafter, the cells were lysed using a lysis buffer (MACHEREY-NAGEL GmbH & Co. KG).\nas §3"}, "[6]": {"test_system": "primary cultured human lung fibroblasts", "experiment": "Expression of marker genes for fibrosing in primary cultured human lung fibroblasts (quantitative real time PCR)", "type": "cell-based", "details": "48 hours", "protocol": "as §2, §3"}, "[7]": {"test_system": "LX-2 cells", "experiment": "Immunostaining of αSMA and CollagenI in LX-2 cells", "type": "cell-based, human", "details": "3 μM, vs DMSO group, FIG. 2", "protocol": "LX-2 cells were cultured in the same manner as in Example 1, except that the concentration of Compound (II) was changed to 3 μM.\nLX-2 cells were fixed in Mildform (registered trademark) 10N (FUJIFILM Wako Pure Chemical Corporation) at room temperature for 10 minutes and washed with PBS. Membranes were permeabilized using 0.2% Triton X-100. The cells were blocked at room temperature for one hour using 5% skim milk or 0.3% BSA/PBS. After washing with PBS, αSMA (Dako), CollagenI (Abcam), and Hoechst33342 (Sigma-Aldrich) were each added as a first antibody, and the mixture was reacted overnight at 4° C. On the next day, the cells were washed with PBS and then reacted with Invitrogen Alexa Fluor (theromo Fisher) as a second antibody. The cells were observed under a fluorescence microscope (Keyence BZ-X810)."}, "[8]": {"test_system": "LX-2 cells (human hepatic stellate cells)", "experiment": "Expression of marker genes for fibrosing in LX-2 cells (quantitative real time PCR)", "type": "cell-based", "details": "5 μM, co-cultured 48 hours, vs DMSO, standardized by GAPDH, FIG. 1", "protocol": "LX-2 cells (human hepatic stellate cells) (sigma-aldrich, reference document: Gut 2005, 54 (1), 142-151) were seeded in 12-well tissue culture plates (5×10^4 cells/well) and cultured in Dulbecco's Modified Eagle's Medium (high glucose) (Thermo Fisher Scientific) together with 10% FBS (Fetal Bovine Serum) and 100× penicillin-streptomycin-glutamine (PSG) in a 5% CO2 humidified incubator at 37° C. After 48 hours, the cells were stimulated with dimethyl sulfoxide (DMSO), Compound (II), and Compound (III) (5 μM) (final concentration of DMSO was 0.02%) and co-cultured for another 48 hours. Thereafter, the cells were lysed using a lysis buffer (MACHEREY-NAGEL GmbH & Co. KG).\nas §1, with “LX-2 cells” for “mouse liver tissue”"}, "[9]": {"details": "not stimulated with TGFβ1, 5 μM, FIG. 11"}, "[10]": {"details": "stimulated with TGFβ1 (20 ng/ml), 5 μM, FIG. 12"}, "[11]": {"details": "not stimulated with TGFβ1, 5 μM, FIG. 7"}, "[12]": {"details": "stimulated with TGFβ1 (20 ng/ml), 5 μM, FIG. 8"}, "[13]": {"details": "not stimulated with TGFβ1, 5 μM, FIG. 13"}, "[14]": {"details": "stimulated with TGFβ1 (20 ng/ml), 5 μM, FIG. 14"}, "[15]": {"details": "not stimulated with TGFβ1, 5 μM, FIG. 9"}, "[16]": {"details": "stimulated with TGFβ1 (20 ng/ml), 5 μM, FIG. 10"}}, "data": [{"compound": "CC(C)(C)c1cc(-c2ccc(Oc3ccccc3CCC(=O)OCCCOP(=O)(O)OCC(N)C(=O)O)cc2)cc(C(C)(C)C)c1", "note": "(stereo not drawn) [Compound (II)]", "values": [{"measurement": "positive range of CollagenI in liver tissue sections (Area collagen I/Area total)", "setting": "[1]; vs vehicle, FIG. 4", "result": "small"}, {"measurement": "Ki67 staining of liver tissue sections (cell proliferation capability)", "setting": "[1]; vs vehicle, FIG. 5", "result": "larger area stained in red"}, {"measurement": "expression of αSMA and CollagenI in liver tissue sections (immunostaining)", "setting": "[1]; vs vehicle, FIG. 5", "result": "suppressed"}, {"measurement": "expression levels of the marker genes for fibrosing (COL1A1, COL3A1) in liver tissue", "setting": "[1]; FIG. 6", "result": "decreased"}, {"measurement": "expression levels of the marker genes for fibrosing (ACTA2, COL1A1, COL3A1)", "setting": "[2]; [9]", "result": "decreased"}, {"measurement": "expression levels of the marker genes for fibrosing (ACTA2, COL1A1, COL3A1)", "setting": "[2]; [10]", "result": "decreased"}, {"measurement": "expression levels of the marker genes for fibrosing (ACTA2, COL1A1, COL3A1)", "setting": "[3]; [11]", "result": "decreased"}, {"measurement": "expression levels of the marker genes for fibrosing (ACTA2, COL1A1, COL3A1)", "setting": "[3]; [12]", "result": "decreased"}, {"measurement": "expression levels of the marker genes for fibrosing (ACTA2, COL1A1, COL3A1)", "setting": "[4]", "result": "decreased"}, {"measurement": "expression levels of the marker genes for fibrosing (ACTA2, COL1A1, COL3A1)", "setting": "[5]; [13]", "result": "decreased"}, {"measurement": "expression levels of the marker genes for fibrosing (ACTA2, COL1A1, COL3A1)", "setting": "[5]; [14]", "result": "decreased"}, {"measurement": "expression levels of the marker genes for fibrosing (ACTA2, COL1A1, COL3A1)", "setting": "[6]; [15]", "result": "decreased"}, {"measurement": "expression levels of the marker genes for fibrosing (ACTA2, COL1A1, COL3A1)", "setting": "[6]; [16]", "result": "decreased"}, {"measurement": "expression of αSMA and CollagenI (immunostaining)", "setting": "[7]", "result": "suppressed"}, {"measurement": "expression levels of the marker genes for fibrosing (ACTA2, COL1A1, COL3A1)", "setting": "[8]", "result": "decreased"}]}, {"compound": "NC(COP(=O)(O)OCCCOC(=O)CCc1ccccc1Oc1ccc(-c2cc(-c3ccccc3)cc(-c3ccccc3)c2)cc1)C(=O)O", "note": "(stereo not drawn) [Compound (III)]", "values": [{"measurement": "expression levels of the marker genes for fibrosing (ACTA2, COL1A1, COL3A1)", "setting": "[2]; [9]", "result": "decreased"}, {"measurement": "expression levels of the marker genes for fibrosing (ACTA2, COL1A1, COL3A1)", "setting": "[2]; [10]", "result": "decreased"}, {"measurement": "expression levels of the marker genes for fibrosing (ACTA2, COL1A1, COL3A1)", "setting": "[3]; [11]", "result": "decreased"}, {"measurement": "expression levels of the marker genes for fibrosing (ACTA2, COL1A1, COL3A1)", "setting": "[3]; [12]", "result": "decreased"}, {"measurement": "expression levels of the marker genes for fibrosing (ACTA2, COL1A1, COL3A1)", "setting": "[5]; [13]", "result": "decreased"}, {"measurement": "expression levels of the marker genes for fibrosing (ACTA2, COL1A1, COL3A1)", "setting": "[5]; [14]", "result": "decreased"}, {"measurement": "expression levels of the marker genes for fibrosing (ACTA2, COL1A1, COL3A1)", "setting": "[6]; [15]", "result": "decreased"}, {"measurement": "expression levels of the marker genes for fibrosing (ACTA2, COL1A1, COL3A1)", "setting": "[6]; [16]", "result": "decreased"}, {"measurement": "expression levels of the marker genes for fibrosing (ACTA2, COL1A1, COL3A1)", "setting": "[8]", "result": "decreased"}]}]}
